In ChEMBL document CHEMBL1201862, “PubChem BioAssay data set” (2004):
Active and inactive are the calls of the source.

Legend:
[1] = biological target: Protein Wnt-3a (Mus musculus, UniProt P27467); assay: SAR analysis of small molecule antagonists of Gli-SUFU in a Wnt3a luminescent reporter assay.; type: functional
[2] = human group III sPLA2 inhibitors, dose response, biochemical, QFRET, IC50 (AID 743457);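 note: green fluorescence rise as the enzyme cleaves BODIPY PC-A2 in liposomes; potency for inhibition of the enzyme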
[3] = HEK293T cytotoxicity, dose response, cytotoxicity control for miR-122 modulator project, cell-based, inhibitor set, cherry-pick, set 2 (AID 720697); type: functional
[4] = biological target: Potassium channel subfamily K member 3 (Homo sapiens, UniProt O14649); assay: TASK1 (KCNK3) potassium channel inhibitors, SAR follow-up, CHO cells, FluxOR thallium flux (AID 652212); type: functional
[5] = biological target: Potassium channel subfamily K member 9 (Homo sapiens, UniProt Q9NPC2); assay: TASK3 (KCNK9) channel inhibitors, thallium flux, SAR follow-up, selectivity assay for TASK1 inhibitor project, cell-based, FluxOR thallium flux, concentration-response (AID 652211); type: functional;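 note: potency is for inhibitors of the channel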
[6] = EDANS-DABCYL fluorescence interference, concentration series, dose response, artefact control for kallikrein-7 zymogen activator project, biochemical, fluorescence intensity, triplicate (AID 720493)
[7] = biological target: Kallikrein-7 (Homo sapiens, UniProt P49862); assay: Fluorescence Intensity-based biochemical primary high throughput dose response assay to identify activators of kallikrein-7 (K7) zymogen.
[8] = biological target: Paired box protein Pax-8 (Homo sapiens, UniProt Q06710); assay: inhibitors of PAX8-driven TPO luciferase reporter, dose response, RMG-I cells, cherry-pick (AID 687027); type: functional, cell-based;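 note: luciferase reporter driven by Pax8 target thyroperoxidase promoter measured by SteadyGlo luminescence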
[9] = cytotoxicity in OVCAR8 ovarian cancer cells, dose response, PAX8 project, cell-based, plate reader, dry powder samples (AID 743197); type: functional; settings: OVCAR-8
[10] = inhibitors of CMV-promoter luciferase reporter, dose response, counter-screen for Pax8 inhibitor project, cell-based, HEK293, luminescence, dry powder (AID 743020); type: functional
[11] = NIH:OVCAR-3 ovarian cancer cell cytotoxicity, dose response, PAX8 inhibitor project, plate reader, dry powder samples (AID 743044); type: functional, cell-based
[12] = A2780 ovarian cancer cell cytotoxicity, dose response, cytotoxicity control, plate reader, dry powder samples (AID 743046); type: functional, cell-based
[13] = IGROV1 ovarian cancer cell cytotoxicity, dose response, PAX8 inhibitor project, plate reader, dry powder samples (AID 743043); type: functional, cell-based; settings: IGROV-1
[14] = cells; type: functional, cell-based
[15] = biological target: T1, Trace amine-associated receptor 1 (Homo sapiens, UniProt Q96RJ0); assay: Fluorescence-based cell-based high throughput dose response assay to identify agonists of the human trace amine associated receptor 1 (TAAR1).; type: functional
[16] = biological target: T1, Trace amine-associated receptor 1; assay: Counterscreen for agonists of the human trace amine associated receptor 1 (hTAAR1): Fluorescence-based cell-based high throughput dose response assay to identify hTAAR1 agonist that also desensitize TAAR1 receptor response.; type: functional
[17] = cells; type: functional, cell-based; remark: listed apart in the source
[18] = HepG2 cell cytotoxicity, dose response, cytotoxicity control, CellTiter-Glo luminescence, cherry-pick, set 2 (AID 743395); type: functional
[19] = biological target: Nuclear receptor subfamily 0 group B member 1 (Homo sapiens, UniProt P51843); type: functional, cell-based;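 note: HEK293T cells transfected with SF-1 and DAX-1 plus StAR promoter luciferase reporter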
[20] = cells; type: functional, cell-based; remark: listed apart in the source
[21] = biological target: Metabotropic glutamate receptor 5 (Rattus norvegicus, UniProt P31424); assay: Identification of a glycine sulfonamide based non-MPEP site positive allosteric potentiator (PAM) of mGlu5 (calcium_assay).; type: functional
[22] = inhibitors of clade B AD8 Env fusion, dose response, cell-based, cherry-pick (AID 652062); type: functional;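 note: luciferase signal from cell-cell fusion driven by HIV-1 clade B AD8 Env; potency is for inhibitors of fusion seen as a drop in luminescence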
[23] = ZM109 Env clade C HIV-1 fusion inhibitors, dose response, HeLa effector, CEM target cells, luciferase, cherry-pick (AID 652058); type: functional, cell-based
[24] = CEM21 lymphoblast cell cytotoxicity, dose response, cytotoxicity control for viral fusion inhibitor project, CellTiter-Glo luminescence, cherry-picked (AID 652042); type: functional, cell-based;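 note: potency for signal decrease meaning cytotoxicity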
[25] = inhibitors of HIV Env-driven cell fusion, dose response, cherry-pick (AID 652057); type: functional, cell-based
[26] = off-target signal loss in HeLa-CEM21 co-culture – HeLa F-luc CTL cells, cherry-picked, counter-screen for HIV-1 Env fusion inhibitor project, dose response (AID 652040); type: functional, cell-based;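 note: potency for signal decrease marking cytotoxic or nonspecific inhibition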
[27] = biological target: SUMO-activating enzyme (Homo sapiens, UniProt Q9UBT2); assay: SUMOylation inhibitor hit validation, confirmation, SUMOylation inhibitor project, biochemical, AlphaScreen (AID 2018); type: functional
Sequence of SUMO-activating enzyme (Q9UBE0 whole entry): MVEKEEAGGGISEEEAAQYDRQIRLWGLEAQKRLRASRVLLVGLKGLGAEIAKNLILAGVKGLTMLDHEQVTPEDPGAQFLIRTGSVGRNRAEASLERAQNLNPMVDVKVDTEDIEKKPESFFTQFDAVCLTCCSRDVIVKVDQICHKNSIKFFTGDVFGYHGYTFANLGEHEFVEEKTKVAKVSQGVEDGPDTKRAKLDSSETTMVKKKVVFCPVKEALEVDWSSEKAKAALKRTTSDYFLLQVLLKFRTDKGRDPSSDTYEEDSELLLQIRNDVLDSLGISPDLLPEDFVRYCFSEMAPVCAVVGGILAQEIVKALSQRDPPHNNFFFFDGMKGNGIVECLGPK
Sequence of SUMO-activating enzyme (Q9UBT2 whole entry): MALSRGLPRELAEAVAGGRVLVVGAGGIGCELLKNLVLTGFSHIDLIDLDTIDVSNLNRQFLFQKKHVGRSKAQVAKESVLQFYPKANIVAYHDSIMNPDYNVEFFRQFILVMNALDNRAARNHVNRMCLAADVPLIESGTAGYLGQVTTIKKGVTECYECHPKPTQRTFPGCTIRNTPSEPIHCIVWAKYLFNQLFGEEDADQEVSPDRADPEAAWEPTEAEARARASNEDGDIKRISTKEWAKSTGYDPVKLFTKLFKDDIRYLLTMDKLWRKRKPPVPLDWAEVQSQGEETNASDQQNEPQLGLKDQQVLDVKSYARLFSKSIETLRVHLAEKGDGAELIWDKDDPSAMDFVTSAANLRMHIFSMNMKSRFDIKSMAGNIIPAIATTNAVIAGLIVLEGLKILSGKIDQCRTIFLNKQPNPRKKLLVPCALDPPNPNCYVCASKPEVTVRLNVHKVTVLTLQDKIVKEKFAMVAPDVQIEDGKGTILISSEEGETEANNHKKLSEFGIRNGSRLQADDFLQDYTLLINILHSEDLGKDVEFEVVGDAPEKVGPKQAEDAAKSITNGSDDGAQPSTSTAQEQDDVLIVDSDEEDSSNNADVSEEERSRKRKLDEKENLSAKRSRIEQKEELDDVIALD

T1 sequence (Q96RJ0 whole entry): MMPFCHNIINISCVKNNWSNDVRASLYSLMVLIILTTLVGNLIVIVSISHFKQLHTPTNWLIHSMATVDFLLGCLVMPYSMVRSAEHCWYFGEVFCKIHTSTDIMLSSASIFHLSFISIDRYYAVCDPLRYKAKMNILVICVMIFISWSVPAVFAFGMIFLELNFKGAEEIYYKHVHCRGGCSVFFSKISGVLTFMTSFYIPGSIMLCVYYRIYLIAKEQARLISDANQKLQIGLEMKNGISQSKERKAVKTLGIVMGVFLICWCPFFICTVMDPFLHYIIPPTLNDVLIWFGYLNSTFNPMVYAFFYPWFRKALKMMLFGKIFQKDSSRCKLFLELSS
Sequence of Potassium channel subfamily K member 3 (O14649 whole entry): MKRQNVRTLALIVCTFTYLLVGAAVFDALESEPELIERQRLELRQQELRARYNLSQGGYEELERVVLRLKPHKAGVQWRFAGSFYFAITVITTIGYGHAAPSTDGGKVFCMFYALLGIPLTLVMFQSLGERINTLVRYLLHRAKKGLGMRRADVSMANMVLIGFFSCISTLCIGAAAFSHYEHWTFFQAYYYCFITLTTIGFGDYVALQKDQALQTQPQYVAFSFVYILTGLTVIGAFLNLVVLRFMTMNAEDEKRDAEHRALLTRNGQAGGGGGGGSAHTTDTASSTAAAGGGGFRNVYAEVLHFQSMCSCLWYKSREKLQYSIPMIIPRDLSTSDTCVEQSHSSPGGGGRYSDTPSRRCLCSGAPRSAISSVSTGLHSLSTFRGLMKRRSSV
Sequence of Nuclear receptor subfamily 0 group B member 1 (P51843 whole entry): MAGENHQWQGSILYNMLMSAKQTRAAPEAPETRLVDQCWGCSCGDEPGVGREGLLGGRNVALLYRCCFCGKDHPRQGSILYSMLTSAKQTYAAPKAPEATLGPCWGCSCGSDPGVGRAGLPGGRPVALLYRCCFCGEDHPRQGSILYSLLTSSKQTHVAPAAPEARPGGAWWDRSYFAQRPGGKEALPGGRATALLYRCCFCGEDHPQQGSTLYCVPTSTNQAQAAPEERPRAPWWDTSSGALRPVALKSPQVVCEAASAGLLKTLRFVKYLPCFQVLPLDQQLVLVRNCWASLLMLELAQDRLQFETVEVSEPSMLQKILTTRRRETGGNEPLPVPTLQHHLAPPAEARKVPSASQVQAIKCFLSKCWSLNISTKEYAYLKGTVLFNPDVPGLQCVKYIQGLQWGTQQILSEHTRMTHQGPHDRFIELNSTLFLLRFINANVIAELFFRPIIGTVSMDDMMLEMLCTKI
Sequence of Paired box protein Pax-8 (Q06710 whole entry): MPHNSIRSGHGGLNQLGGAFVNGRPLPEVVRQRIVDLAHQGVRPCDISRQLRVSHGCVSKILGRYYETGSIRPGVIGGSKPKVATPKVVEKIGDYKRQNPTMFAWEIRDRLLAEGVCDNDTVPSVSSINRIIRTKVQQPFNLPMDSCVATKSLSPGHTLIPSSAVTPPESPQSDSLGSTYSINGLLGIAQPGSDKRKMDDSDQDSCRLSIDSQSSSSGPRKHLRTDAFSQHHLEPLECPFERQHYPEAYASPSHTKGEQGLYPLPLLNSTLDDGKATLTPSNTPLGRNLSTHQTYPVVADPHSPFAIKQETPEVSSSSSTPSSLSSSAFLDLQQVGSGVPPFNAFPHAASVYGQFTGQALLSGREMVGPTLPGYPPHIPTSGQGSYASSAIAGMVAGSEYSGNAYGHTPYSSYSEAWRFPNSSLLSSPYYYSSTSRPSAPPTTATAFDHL
Sequence of Kallikrein-7 (P49862 whole entry): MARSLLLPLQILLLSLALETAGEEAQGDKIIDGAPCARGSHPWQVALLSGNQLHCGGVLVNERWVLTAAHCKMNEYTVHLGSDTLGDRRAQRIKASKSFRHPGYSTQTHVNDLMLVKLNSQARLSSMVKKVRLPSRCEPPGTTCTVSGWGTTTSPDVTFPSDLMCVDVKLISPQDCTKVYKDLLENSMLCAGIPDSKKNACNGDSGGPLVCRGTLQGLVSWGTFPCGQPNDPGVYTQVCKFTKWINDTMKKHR
Sequence of Metabotropic glutamate receptor 5 (P31424 whole entry, the tested form may be a part): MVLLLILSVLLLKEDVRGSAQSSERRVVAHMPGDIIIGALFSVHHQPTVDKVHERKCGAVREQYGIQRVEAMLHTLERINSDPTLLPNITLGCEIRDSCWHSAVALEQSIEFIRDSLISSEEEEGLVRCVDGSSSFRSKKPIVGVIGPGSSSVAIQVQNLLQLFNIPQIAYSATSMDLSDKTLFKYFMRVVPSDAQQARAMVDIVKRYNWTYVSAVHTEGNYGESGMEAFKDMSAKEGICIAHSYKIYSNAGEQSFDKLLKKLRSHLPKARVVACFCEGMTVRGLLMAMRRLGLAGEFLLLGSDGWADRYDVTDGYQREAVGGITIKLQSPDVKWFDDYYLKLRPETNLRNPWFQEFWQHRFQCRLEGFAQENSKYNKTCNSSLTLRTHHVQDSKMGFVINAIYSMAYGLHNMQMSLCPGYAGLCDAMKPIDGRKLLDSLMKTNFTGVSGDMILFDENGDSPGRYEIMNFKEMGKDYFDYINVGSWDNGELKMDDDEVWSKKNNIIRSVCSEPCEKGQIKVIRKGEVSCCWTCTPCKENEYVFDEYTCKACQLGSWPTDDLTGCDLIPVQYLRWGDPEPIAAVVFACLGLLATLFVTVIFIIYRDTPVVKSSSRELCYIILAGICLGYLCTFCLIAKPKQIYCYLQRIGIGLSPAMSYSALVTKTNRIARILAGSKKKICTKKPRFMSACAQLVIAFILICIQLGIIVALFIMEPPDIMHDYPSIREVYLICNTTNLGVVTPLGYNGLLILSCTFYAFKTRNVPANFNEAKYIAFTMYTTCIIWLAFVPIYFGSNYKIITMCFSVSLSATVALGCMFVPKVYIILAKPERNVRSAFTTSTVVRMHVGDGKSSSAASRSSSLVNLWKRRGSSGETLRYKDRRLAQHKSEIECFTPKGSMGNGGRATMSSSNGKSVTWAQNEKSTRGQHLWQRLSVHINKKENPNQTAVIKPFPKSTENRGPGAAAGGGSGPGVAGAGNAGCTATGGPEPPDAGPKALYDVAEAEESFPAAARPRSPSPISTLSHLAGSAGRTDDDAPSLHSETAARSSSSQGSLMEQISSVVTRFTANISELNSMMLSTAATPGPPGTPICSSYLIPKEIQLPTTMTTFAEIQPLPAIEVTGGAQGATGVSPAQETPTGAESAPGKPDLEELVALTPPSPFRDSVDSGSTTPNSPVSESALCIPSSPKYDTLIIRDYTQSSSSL
Sequence of Potassium channel subfamily K member 9 (Q9NPC2 whole entry): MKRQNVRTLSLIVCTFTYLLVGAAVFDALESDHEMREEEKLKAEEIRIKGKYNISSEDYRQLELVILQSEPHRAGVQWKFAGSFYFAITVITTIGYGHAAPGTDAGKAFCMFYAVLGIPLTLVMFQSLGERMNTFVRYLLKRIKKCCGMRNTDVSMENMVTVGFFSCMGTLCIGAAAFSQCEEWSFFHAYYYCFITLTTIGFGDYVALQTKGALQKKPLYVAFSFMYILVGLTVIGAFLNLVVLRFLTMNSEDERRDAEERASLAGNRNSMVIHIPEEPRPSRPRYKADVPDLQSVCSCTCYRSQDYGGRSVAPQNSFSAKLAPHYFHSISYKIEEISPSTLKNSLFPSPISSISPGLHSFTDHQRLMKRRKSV
Sequence of Protein Wnt-3a (P27467 whole entry): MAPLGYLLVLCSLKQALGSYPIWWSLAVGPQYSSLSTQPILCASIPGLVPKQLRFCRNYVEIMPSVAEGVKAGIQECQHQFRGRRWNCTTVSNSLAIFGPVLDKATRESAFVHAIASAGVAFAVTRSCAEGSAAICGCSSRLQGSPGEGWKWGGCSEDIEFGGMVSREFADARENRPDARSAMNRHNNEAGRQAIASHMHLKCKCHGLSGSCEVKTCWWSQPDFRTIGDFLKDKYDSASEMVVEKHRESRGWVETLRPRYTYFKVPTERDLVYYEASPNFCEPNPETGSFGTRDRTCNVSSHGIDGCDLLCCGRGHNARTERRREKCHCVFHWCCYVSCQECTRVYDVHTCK

COc1ccccc1C(=O)Nc1cc(N2CCCCC2)ncn1
IC50 [1]: > 21.8 µM (inactive)

O=C1C(=O)N(Cc2ccc(-c3ccccc3)cc2)c2ccc(OC(F)(F)F)cc21
IC50 [2]: 32 µM (inactive)

COc1cccc(NC(=O)Nc2ccc3c(c2)C(=O)N(C)C[C@@H](OC)[C@@H](C)CN[C@H](C)CO3)c1
AC50 [3]: 1.49 µM (active)

Cc1cccc(C(=O)Nc2cccc(NC(=O)C3CCCCC3)c2)c1
IC50 [4]: 17 nM (active)
IC50 [5]: 11.9 µM (active)

CCOC(=O)c1c(N)n(CCN2CCCCC2)c2nc3ccccc3nc12
EC50 [6]: > 2.58 µM (active)
EC50 [7]: 3.62 µM (active)

C[C@@H]1CCCCO[C@H](CN(C)Cc2ccc(C(F)(F)F)cc2)[C@@H](C)CN([C@@H](C)CO)C(=O)c2cc(NC(=O)Nc3ccc(F)cc3)ccc2O1
AC50 [8]: 5.36 µM (active)
AC50 [9]: 32.1 µM (active)
AC50 [10]: 35.7 µM (active)
AC50 [11]: 21.4 µM (active)
AC50 [12]: 51.7 µM (active)
AC50 [13]: 43.6 µM (active)

O=C(NCCc1cccs1)C1CC(c2cccc(F)c2)=NO1 (configuration not stated)
EC50 [14]: > 29.9 µM (inactive)
EC50 [15]: 13.7 µM (inactive)
IC50 [16]: 2.6 µM (active)
IC50 [17]: > 29.9 µM (inactive)

COc1ccc(NC(=O)c2cc(S(=O)(=O)N3CCOCC3)ccc2C)cc1S(=O)(=O)N1CCOCC1
AbsAC35_uM [18]: 36.86 µM

O=C(COc1ccccc1)Nc1cccc(-c2ccc(N3CCOCC3)nn2)c1
IC50 [19]: > 67.5 µM (inactive)
IC50 [20]: > 67.5 µM (inactive)

CS(=O)(=O)N1c2ccccc2CCC1C(=O)Nc1cccnc1 (configuration not stated)
EC50 [21]: 3.62 µM

Cc1ccc(C)c(OCC(=O)Nc2nonc2NC(=O)COc2cc(C)ccc2C)c1
AC50 [22]: 4.31 µM (active)
AC50 [23]: 1.4 µM (active)
AC50 [24]: 25.4 µM (active)
AC50 [25]: 2.68 µM (active)
AC50 [26]: 6.79 µM (active)
IC50 [27]: 45.4 µM (active)
